The results in this text go back to US20260083698A1, “Synergistic Stimulation of Mucociliary Clearance to Treat Mucus Obstruction in Cystic Fibrosis and Other Muco-Obstructive Disorders” (The Board of Trustees of the Leland Stanford Junior …, priority 2022, published 2026).

For experiment [1], the system named is pig tracheal mucosa. The experiment can be described thus: Short circuit current (Isc) and conductance, Ussing chamber, pig. The following applies: pig tracheal mucosa; sequential 10 μM forskolin, 0.3 μM carbachol, 10 μM benzamil, 20 μM BPO-27, 200 μM niflumic acid. An excerpt:
FIG. 4. Combined agonists inhibit sodium absorption and stimulate anion secretion by surface epithelia. (A) Cartoon of two electrogenic, ion transport pathways across airway apical epithelium: anion secretion increases surface fluid, Na+ absorption decreases surface fluid. The two pathways have opposite effects on fluid depth, but additive effects on short circuit current (Isc) because of their opposite valence and transport directions. (B) Raw trace of Isc across pig tracheal epithelium using Chart 4 software. After reaching a stable, unstimulated Isc (here, >2 h post-mounting), 10 μM forskolin, 0.3 μM carbachol, 10 μM benzamil, 20 μM benzopyrimido-pyrrolo-oxazinedione (BPO-27) and 200 μM niflumic acid were sequentially added at times shown. (C, D) Pig tracheal mucosa: averaged Δ Isc plots over time in response to (C) forskolin alone followed by forskolin+carbachol and (D) reversed order of agonist addition. (E & F) Ferret tracheal mucosa: averaged A Isc plots with same protocol as for pigs. Pig traces (C, D) are based on 10-12 experiments with tissues from 6 to 7 pigs. Ferret traces (E, F) are from 7 experiments with tissues from 5 ferrets.
Combined agonists stimulate epithelial surface anion secretion and inhibit Na^+ absorption. The surface epithelia also modify ASL. FIG. 4A is a cartoon of the main ion flows controlling ASL depth: anion-mediated fluid secretion increases, and Na^+-mediated fluid absorption decreases ASL depth. It was hypothesized that the combined agonists increase ASL depth and thus MCCV by stimulating secretion and inhibiting absorption (see also FIG. 6). […] With no counterbalancing absorption ASL depth is predicted to increase (dotted gold line in FIG. 6A) unless MCCV increases.
Inhibiting Na+ absorption would increase net fluid accumulation on the surface. […]
Electrophysiology. […] Total tissue conductance was calculated by applying Ohm's law to the Isc deflection resulting from a 1 mV pulse across the tissues every 20 s during the experiment. […]

Experiment [2] deals with WT piglet tracheas. The experiment can be described thus: Mucociliary clearance velocity (MCCV) in ex vivo WT piglet tracheas. More on the design: species or system pig. The method, then:
MCCV in tracheas was measured from 2 to 5 days old WT piglets (see “Methods” section for details). […] The 8 piglet tracheas were divided into two groups and tested 4 by applying forskolin first and 4 by applying carbachol first, followed by the combined agonists.
These experiments used forskolin to elevate cAMP.
Pig tissues. Newborn WT piglet tracheas (2-5 days old) were directly obtained at the swine facility of UC Davis or from the laboratory of David Stoltz, University of Iowa, via overnight priority express. Postmortem (<1 h) tracheas from young adult Yorkshire pigs (30-50 kg) and 5-12 months old M. putorius ferrets were from animal facilities at Stanford and Gilroy/CA. All methods using animal tracheae were carried out in accordance with relevant guidelines and regulations of Stanford University and animal protocols were approved (Stanford IACUC protocol#: 10,048). Piglet tracheas were shipped in DMEM cell culture medium, other animal tissues were transported to the laboratory in cold PhysioSol™ solution (Hospira, IL/USA) and then transferred to icecold Krebs Ringer bicarbonate (KRB) buffer gassed with 95% O2 and 5% CO2 and kept at 4° C. until use. The KRB buffer contained (in mM): 115 NaCl, 25 NaHCO3, 2.4 K2HPO4, 0.4 KH2PO4, 1.2 MgCl2, 1.2 CaCl2, 10 glucose, and 1.0 μM indomethacin, adjusted to pH 7.2 and ˜290 mOsm at room temperature.
MCCV measurement. Details are in the previous reports (16,59,60). Briefly, each whole length ferret or piglet trachea, or a CF tracheal trim, was cut open along the mid-dorsal line and mounted mucosal side up onto a Sylgard elastomer platform. […] The prepared trachea was placed into a sealed, humidified chamber bubbled continuously with gas (95%/5%-O2/CO2) with the serosal surface bathed with KRB buffer±drugs. […] Then excess apical solution was drained, and tissue was incubated for an additional 10 min before starting baseline measurements of MCCV. Drugs were added by bath replacement with pre-warmed bath+drug(s). Summary MCCV data are reported as a single number and based on the averaged MCCV during the last 20 min of the treatment period unless stated otherwise.
MCCV (all values are in mm/min) was then measured for 90-120 min and plotted as MCCV vs time and agonist(s) in FIG. 8.
It was hypothesized that the synergistic MCC induced by β-adrenergic and cholinergic agonists involved ENaC inhibition.

Experiment [3] deals with ex vivo WT pig tracheas. The experiment can be described thus: ASL height by synchrotron-based phase contrast imaging. The settings on record: 10 μM formoterol (T30-T50); synergy agonists (T65-T85). The method, then:
ASL heights were determined in pig tracheal preparations using synchrotron-based phase contrast imaging (PCI). The synchrotron beamline produces enough parallel spatial coherence X-ray to increase the contrast between airway lumen and ASL layer by PCI. When X-rays pass through the intact tracheal preparation, the difference in refractive index between ASL and airway lumen results in a phase shift of X-rays that causes a distinctive interference pattern shown on the charge-coupled device (CCD) detector as variations in X-ray intensity.

Experiment [4] concerns sheep with induced CF airway disease. Nature of the experiment: Tracheal mucus velocity (TMV) in sheep CF model (CFTRinh172 + hNE). Type of experiment: in vivo. The following applies: inhalation, 20 μg Formoterol.
Protocol: Briefly, adult sheep are placed in an upright position in a specialized body harness and under local anesthesia the animals are nasally intubated with a standard endotracheal (ET) tube. Tracheal mucus velocity (TMV), the in vivo equivalent of MCCV, is measured by a fluoroscopic technique. Five to seven radiopaque Teflon/bismuth trioxide disks (1 mm in diameter, 0.8-mm in thickness, and 1.8 mg in weight) are insufflated into the mid-portion of the animal's trachea. Once the disks are delivered into the trachea, the cephalad-axial velocity of each individual disk is recorded on videotape from a portable image intensifier unit in-line with the fluoroscope. The mean value of all the disk velocities is calculated for a given time point, with new disks insufflated pat subsequent time points. After baseline values are determined, animals receive by aerosolization 10 mg of CFTRinh172 and TMV measurements are repeated hourly for the following 2 hours. Then the animals receive by aerosolization 1190 mU of human Neutrophil Elastase (hNE) and TMV measurements are repeated hourly for the following 2 hours. […] Methacholine alone was not tested as this will induce severe bronchospasm and compromise the life of the animal. After test agent administration by inhalation, the TMV was measured hourly for 12 hours and at 24 hours.
Experiment [5] relates to piglet tracheal rings. Nature of the experiment: Airway narrowing: lumen area of thin sliced tracheal rings, methacholine. More on the design: species or system pig. The settings on record: 0.3 or 0.6 mM methacholine alone.
Protocol: Airway smooth muscle contraction measurement. Two methods were used to measure tracheal smooth muscle contraction. One is designed to measure airway narrowing using thin sliced tracheal rings. Piglet or ferret tracheal ring preparations of ˜2 mm were submerged and securely pinned on a Sylgard-lined Petri dish filled with KRB solution at 37° C. and pH 7.4. Digital images of tracheal ring contractions in response to agonists for 1-10 min intervals were recorded with a Nikon digital camera and the inner lumen surface area of the tracheal ring was calculated using ImageJ (NIH, MD/USA). The other method is using a force transducer. One end of an isolated ferret trachealis muscle bundle was secured in a Sylgard-lined Petri dish filled with KRB solution and the other end was attached by 26-gauge wire to a previously calibrated strain gauge (series 400A force transducer system, Cambridge Technology, MA/USA).

Turning to `Cn1c(=O)c2c(-c3ccccc3)n3c(c2n(C)c1=O)C(c1ccc(Br)o1)Oc1ccc(C(=O)O)cc1-3` (centres unmarked) [BPO-27, benzopyrimido-pyrrolo-oxazinedione], the “effect on Isc, raw trace” value in experiment [1] was “steep drops in Isc and conductance”. In the case of `NC(=NCc1ccccc1)NC(=O)c1nc(Cl)c(N)nc1N` [benzamil], the “increase of baseline MCCV by ENaC inhibition” value in experiment [2] (10 μM benzamil vs without benzamil, piglets) is given as around 6 times. Moreover, the “baseline MCCV with benzamil” value in experiment [2] (10 μM benzamil, no agonists, piglets) is on record as 3.0±0.7 mm/min.

With `COc1ccc(CC(C)NCC(O)c2ccc(O)c(NC=O)c2)cc1` (centres unmarked) [formoterol], the “average rate of ASL height increase” value in experiment [3] was found to be 1.7±0.1 μm/min. Further, in experiment [4], the “effect on TMV compared to the control” value was “barely had any effect”.

Regarding `CC(=O)OC(C)C[N+](C)(C)C` (centres unmarked) [methacholine], the “effect on MCCV” value in experiment [2] (piglet tracheas, 10 μM formoterol or 0.3 μM methacholine alone) is recorded as “only a small increase”. Also, the “sustained reduction of lumen area” value in experiment [5] was 20-40%. Take `O=C(O)c1cccnc1Nc1cccc(C(F)(F)F)c1` [niflumic acid]: in experiment [1], the “effect on Isc, raw trace” value is “steep drops in Isc and conductance”.
